US20220363686A1 (AiCuris GmbH & Co. KG, priority 2018, published 2022)
Like-named read-outs stand apart in the source and are kept apart here.

Columns and labels:
[1] = Cell viability assay (AlamarBlue); conditions: human, HepAD38 cells
Experimental: Using the AlamarBlue viability assay cytotoxicity was evaluated in HepAD38 cells in the presence of 0.3 μg/ml tetracycline, which blocks the expression of the HBV genome. Assay condition and plate layout were in analogy to the anti-HBV assay, however other controls were used. On each assay plate six wells containing untreated HepAD38 cells were used as the 100% viability control, and six wells filled with assay medium only were used as 0% viability control. In addition, a geometric concentration series of cycloheximide starting at 60 μM final assay concentration was used as positive control in each experiment. After six days incubation period Alamar Blue Presto cell viability reagent (ThermoFisher, Dreieich) was added in 1/11 dilution to each well of the assay plate. After an incubation for 30 to 45 min at 37° C. the fluorescence signal, which is proportional to the number of living cells, was read using a Tecan Spectrafluor Plus plate reader with an excitation filter 550 nm and emission filter 595 nm, respectively. Data were normalized into percentages of the untreated control (100% viability) and assay medium (0% viability) before CC50 values were calculated using non-linear regression and the GraphPad Prism 6.0 (GraphPad Software, La Jolla, USA). Mean EC50 and CC50 values were used to calculate the selectivity index (SI=CC50/EC50) for each test compound.

[2] = biological target: HBV core protein (C-terminal truncated core protein containing 149 amino acids of the N-terminal assembly domain) (UniProt P03146); assay: Biochemical capsid assembly assay (fluorescence quenching); set-up: rows headed: Assembly Activity; other: BODIPY-FL labelled core protein, assembly started with NaCl, read after 6 min; conditions: read-out: Assembly Activity; BODIPY-FL labelled core protein, assembly started with NaCl, read after 6 min
Chain of HBV core protein (C-terminal truncated core protein containing 149 amino acids of the N-terminal assembly domain) (P03146 whole entry, the tested form may be a part): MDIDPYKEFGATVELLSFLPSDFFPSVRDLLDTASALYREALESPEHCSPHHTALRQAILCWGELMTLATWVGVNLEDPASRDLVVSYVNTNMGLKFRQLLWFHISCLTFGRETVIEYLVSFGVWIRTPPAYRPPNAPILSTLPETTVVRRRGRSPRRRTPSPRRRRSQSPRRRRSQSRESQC
How it was run: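 N-terminal assembly domain (residues 1–149) plus C-terminal Cys150, E. coli-expressed, BODIPY-FL-maleimide labelled, used at 1.0–2.0 μM in 50 mM HEPES pH 7.5 with 0.5% DMSO. Assembly started with NaCl ([…]); fluorescence quenching (ex 477/em 525 nm) read after 6 min. 8-point compound series; EC50 by non-linear regression.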

[3] = test system: HBV; assay: Determination of HBV DNA from the supernatants of HepAD38 cells (anti-HBV activity); format: cell-based, hepatitis B virus; conditions: Hepatitis B virus, HePAD38, 144 h, HBV DNA in HepAD38 supernatant, day 6, qPCR, read-out: Cell Activity
How it was run: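 EC50 derived by non-linear regression of relative HBV DNA copy numbers, measured by qPCR (plasmid standards) in day-6 filtered supernatants. Before this, HepAD38 cells were exposed to serial half-log compound dilutions without tetracycline, releasing viral expression; cultures kept at 37 °C, 5% CO2.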

SMILES	CC50 at 6 days [1]	IC50 [2]	EC50 [3]	EC50 ([3]; printed as number instead of class symbol)
O=C(c1cc2ccccc2[nH]1)N1CCn2ncc(C(=O)N3CCOCCC34CC4)c2C1 [Example 68, 4-[5-(1H-indole-2-carbonyl)-4H,5H,6H,7H-pyrazolo[1,5-a]pyrazine-3-carbonyl]-7-oxa-4-azaspiro[2.6]nonane]	> 10 µM	< 5 µM	< 1 µM	–
O=C(c1cc2ccccc2[nH]1)N1CCn2ncc(C(=O)N3CCOC(F)(F)C3)c2C1 [Example 69, 2-[3-(2,2-difluoromorpholine-4-carbonyl)-4H,5H,6H,7H-pyrazolo[1,5-a]pyrazine-5-carbonyl]-1H-indole]	> 10 µM	< 5 µM	< 1 µM	–
CN(C(=O)c1cnn2c1CN(C(=O)c1cc3ccccc3[nH]1)CC2)C1(c2cccnc2)CC1 [Example 72, 5-(1H-indole-2-carbonyl)-N-methyl-N-[1-(pyridin-3-yl)cyclopropyl]-4H,5H,6H,7H-pyrazolo[1,5-a]pyrazine-3-carboxamide]	> 10 µM	< 5 µM	< 1 µM	–
O=C(c1cc2ccccc2[nH]1)N1CCn2ncc(C3CCCO3)c2C1 (stereo not drawn) [Example 73, 2-[3-(oxolan-2-yl)-4H,5H,6H,7H-pyrazolo[1,5-a]pyrazine-5-carbonyl]-1H-indole]	> 10 µM	< 5 µM	< 1 µM	–
CN(C(=O)c1cnn2c1CN(C(=O)c1cc3ccccc3[nH]1)CC2)C1CC1 [Example 74, N-cyclopropyl-5-(1H-indole-2-carbonyl)-N-methyl-4H,5H,6H,7H-pyrazolo[1,5-a]pyrazine-3-carboxamide]	> 10 µM	< 5 µM	< 1 µM	–
O=C(c1cc2ccccc2[nH]1)N1CCn2ncc(C(=O)N(CCO)C3(CO)CC3)c2C1 [Example 75, N-(2-hydroxyethyl)-N-[1-(hydroxymethyl)cyclopropyl]-5-(1H-indole-2-carbonyl)-4H,5H,6H,7H-pyrazolo[1,5-a]pyrazine-3-carboxamide]	> 10 µM	< 5 µM	< 1 µM	–
O=C(c1cc2ccccc2[nH]1)N1CCn2ncc(N3CCC4(CC4)C3=O)c2C1 [Example 76, 5-[5-(1H-indole-2-carbonyl)-4H,5H,6H,7H-pyrazolo[1,5-a]pyrazin-3-yl]-5-azaspiro[2.4]heptan-4-one]	> 10 µM	5 to 10 µM	1 to 10 µM	–
CN(CCO)C(=O)c1cnn2c1CN(C(=O)c1cc3ccccc3[nH]1)CC2 [Example 77, N-(2-hydroxyethyl)-5-(1H-indole-2-carbonyl)-N-methyl-4H,5H,6H,7H-pyrazolo[1,5-a]pyrazine-3-carboxamide]	> 10 µM	< 5 µM	< 1 µM	–
C[C@H](NC(=O)c1cnn2c1CN(C(=O)c1cc3ccccc3[nH]1)CC2)C(F)(F)F [Example 78, 5-(1H-indole-2-carbonyl)-N-[(2S)-1,1,1-trifluoropropan-2-yl]-4H,5H,6H,7H-pyrazolo[1,5-a]pyrazine-3-carboxamide]	> 10 µM	< 5 µM	< 1 µM	–
C[C@@H](NC(=O)c1cnn2c1CN(C(=O)c1cc3ccccc3[nH]1)CC2)C(F)(F)F [Example 79, 5-(1H-indole-2-carbonyl)-N-[(2R)-1,1,1-trifluoropropan-2-yl]-4H,5H,6H,7H-pyrazolo[1,5-a]pyrazine-3-carboxamide]	> 10 µM	< 5 µM	< 1 µM	–
CN(C(=O)c1cnn2c1CN(C(=O)c1cc3ccccc3[nH]1)CC2)C1(CNCC(F)(F)F)CC1 [Example 80, 5-(1H-indole-2-carbonyl)-N-methyl-N-(1-{[(2,2,2-trifluoroethyl)amino]methyl}cyclopropyl)-4H,5H,6H,7H-pyrazolo[1,5-a]pyrazine-3-carboxamide]	> 10 µM	< 5 µM	< 1 µM	–
CN(C(=O)c1cnn2c1CN(C(=O)c1cc3c(F)c(F)ccc3[nH]1)CC2)C1(CO)CC1 [Example 81, 5-(4,5-difluoro-1H-indole-2-carbonyl)-N-[1-(hydroxymethyl)cyclopropyl]-N-methyl-4H,5H,6H,7H-pyrazolo[1,5-a]pyrazine-3-carboxamide]	> 10 µM	< 5 µM	< 1 µM	–
CN(C(=O)c1cnn2c1CN(C(=O)c1cc3c(F)ccc(F)c3[nH]1)CC2)C1(CO)CC1 [Example 82, 5-(4,7-difluoro-1H-indole-2-carbonyl)-N-[1-(hydroxymethyl)cyclopropyl]-N-methyl-4H,5H,6H,7H-pyrazolo[1,5-a]pyrazine-3-carboxamide]	> 10 µM	< 5 µM	< 1 µM	–
Cc1cc(F)cc2[nH]c(C(=O)N3CCn4ncc(C(=O)N(C)C5(CO)CC5)c4C3)cc12 [Example 83, 5-(6-fluoro-4-methyl-1H-indole-2-carbonyl)-N-[1-(hydroxymethyl)cyclopropyl]-N-methyl-4H,5H,6H,7H-pyrazolo[1,5-a]pyrazine-3-carboxamide]	> 10 µM	< 5 µM	< 1 µM	–
CN(C(=O)c1cnn2c1CN(C(=O)c1cc3cc(F)c(Cl)cc3[nH]1)CC2)C1(CO)CC1 [Example 84, 5-(6-chloro-5-fluoro-1H-indole-2-carbonyl)-N-[1-(hydroxymethyl)cyclopropyl]-N-methyl-4H,5H,6H,7H-pyrazolo[1,5-a]pyrazine-3-carboxamide]	> 10 µM	< 5 µM	< 1 µM	–
CN(C(=O)c1cnn2c1CN(C(=O)c1cc3c(Cl)cc(F)cc3[nH]1)CC2)C1(CO)CC1 [Example 85, 5-(4-chloro-6-fluoro-1H-indole-2-carbonyl)-N-[1-(hydroxymethyl)cyclopropyl]-N-methyl-4H,5H,6H,7H-pyrazolo[1,5-a]pyrazine-3-carboxamide]	> 10 µM	< 5 µM	< 1 µM	–
O=C(O)c1ccccc1C1CC(=O)N(c2cnn3c2CN(C(=O)c2cc4ccccc4[nH]2)CC3)C1 (stereo not drawn) [Example 86, 2-{1-[5-(1H-indole-2-carbonyl)-4H,5H,6H,7H-pyrazolo[1,5-a]pyrazin-3-yl]-5-oxopyrrolidin-3-yl}benzoic Acid]	> 10 µM	< 5 µM	1 to 10 µM	–
CC(C)(C)NC(=O)c1cnn2c1CN(C(=O)c1cc3ccccc3[nH]1)CC2 [Example 87, N-tert-butyl-5-(1H-indole-2-carbonyl)-4H,5H,6H,7H-pyrazolo[1,5-a]pyrazine-3-carboxamide]	> 10 µM	< 5 µM	< 1 µM	–
O=C(O)c1cccc(F)c1C1CC(=O)N(c2cnn3c2CN(C(=O)c2cc4ccccc4[nH]2)CC3)C1 (stereo not drawn) [Example 88, 3-fluoro-2-{1-[5-(1H-indole-2-carbonyl)-4H,5H,6H,7H-pyrazolo[1,5-a]pyrazin-3-yl]-5-oxopyrrolidin-3-yl}benzoic Acid]	> 10 µM	< 5 µM	–	> 10 µM
CC(COC(F)F)NC(=O)c1cnn2c1CN(C(=O)c1cc3ccccc3[nH]1)CC2 (stereo not drawn) [Example 89, N-[1-(difluoromethoxy)propan-2-yl]-5-(1H-indole-2-carbonyl)-4H,5H,6H,7H-pyrazolo[1,5-a]pyrazine-3-carboxamide]	> 10 µM	< 5 µM	< 1 µM	–
O=C(c1cc2ccccc2[nH]1)N1CCn2ncc(C(=O)N(CCOC(F)F)C3CC3)c2C1 [Example 90, N-cyclopropyl-N-[2-(difluoromethoxy)ethyl]-5-(1H-indole-2-carbonyl)-4H,5H,6H,7H-pyrazolo[1,5-a]pyrazine-3-carboxamide]	> 10 µM	< 5 µM	< 1 µM	–
CN(C(=O)c1cnn2c1CN(C(=O)c1cc3ccccc3[nH]1)CC2)C1(c2ccc(CO)cc2)CC1 [Example 91, N-{1-[4-(hydroxymethyl)phenyl]cyclopropyl}-5-(1H-indole-2-carbonyl)-N-methyl-4H,5H,6H,7H-pyrazolo[1,5-a]pyrazine-3-carboxamide]	> 10 µM	< 5 µM	< 1 µM	–
O=C(NC1(COC(F)F)CC1)c1cnn2c1CN(C(=O)c1cc3cc(F)c(Cl)cc3[nH]1)CC2 [Example 92, 5-(6-chloro-5-fluoro-1H-indole-2-carbonyl)-N-{1-[(difluoromethoxy)methyl]cyclopropyl}-4H,5H,6H,7H-pyrazolo[1,5-a]pyrazine-3-carboxamide]	> 10 µM	< 5 µM	< 1 µM	–
CC1Cn2ncc(C(=O)NC3(COC(F)F)CC3)c2CN1C(=O)c1cc2cc(F)c(Cl)cc2[nH]1 (stereo not drawn) [Example 93, 5-(6-chloro-5-fluoro-1H-indole-2-carbonyl)-N-{1-[(difluoromethoxy)methyl]cyclopropyl}-6-methyl-4H,5H,6H,7H-pyrazolo[1,5-a]pyrazine-3-carboxamide]	> 10 µM	< 5 µM	< 1 µM	–
CC1Cn2ncc(C(=O)NC3(COC(F)F)CC3)c2CN1C(=O)c1cc2cc(F)c(F)cc2[nH]1 (stereo not drawn) [Example 94, 5-(5,6-difluoro-1H-indole-2-carbonyl)-N-{1-[(difluoromethoxy)methyl]cyclopropyl}-6-methyl-4H,5H,6H,7H-pyrazolo[1,5-a]pyrazine-3-carboxamide]	> 10 µM	< 5 µM	< 1 µM	–
